The results in this text go back to patent EP0117797A1, “Nitroso ureas, process for their preparation and their therapeutic use” (CENTRE NATIONAL DE LA RECHERCHE SCIENTIFIQUE, priority 1983, dated 1984).

For data set [1], the system named is cellules de leucémie L 1210. In words: Oncostatic activity against L 1210 leukaemia (i.p.) in mice, survival T/C. The data set is classed as in vivo, souris F1, (DBA/2XC57 B 1/6). To be noted: for Dose optimale / T/C max / M.E.D.I. / efficacité (comparison in words): L 1210 i.p.; for T/C max: treated days 1, 5 and 9, suspension in oil, T/C = ∞ when 50 % of the animals are cured, T/C > 125 % = active; for M.E.D.I.: dose plateau of maximum activity corresponding to T/C = ∞; for I = DL50 / D.Opt.: therapeutic index, DL50 divided by optimal dose; for efficacité (comparison in words): 2-chloro-éthylamides compared with the known -NH2 amides (N° 10, 14 et 16). The text has this:
L'activité oncostatique de certains composés de l'invention par comparaison à d'autres nitrosourées connues a été déterminée en suivant le protocole expérimental suivant : • Des souris F1, (DBA/2XC57 B 1/6) sont inoculées avec 10^5 cellules de leucémie L 1210 par voie intrapéritonéale au jour 0 et divisées en 5 groupes. Le premier est le groupe de contrôle et les quatre autres sont traités avec les produits à tester à différentes concentrations, aux jours 1,5 et 9. Les composés sont injectés en suspension dans l'huile. La mortalité des animaux est observée et l'autopsie indique si elle est due à la leucémie ou à l'action toxique de la drogue. Les résultats, pour chaque dose de produit, sont exprimés en T/C (%) (T représente la médiane de survie du groupe traité et C la médiane de survie du groupe témoin T/C = ∞ quand 50 % des animaux sont guéris. T/C > 125 % signifie qu'une drogue est active.
Ces essais ont été effectués à l'aide de composés de formule [formula] pour différents amino-acides et différentes significations du substituant X (substituant côté C terminal).
Les significations de X sont les suivantes : • 1) Composés de l'invention : X = -NH-CH2-CH2Cl, -N(CH2-CH2-Cl)2 et -NH-C6H4-N(CH2-CH2-Cl)2 • 2) Composés en dehors de l'invention : X = -NH2 et -NH-C^H3.
Le tableau précédent rapporte les valeurs DL50, T/C, M.E.D.I. (Maximum efficace dose internal = plateau d'activité maximum correspondant à T/C = ∞), dose optimale et Indice thérapeutique.

Data set [2] in a line: Acute toxicity (DL50). Conditions: mouse, in vivo.

Consider `O=NN(CCCl)C(=O)NCCC(=O)NCCCl` [compound 2], for which, in data set [1], the Dose optimale is given as 35 mg/kg, the T/C max result is reported as “∞”, the M.E.D.I. is 20 to 50 mg/kg and the “I = DL50 / D.Opt.” value is recorded as 2,86. Also, the DL50 in data set [2] came to 100 mg/kg.

As a reminder, the LD50 is the dose at which mortality reaches 50%. Take `CC(C)C[C@H](NC(=O)N(CCCl)N=O)C(=O)NCCCl` [compound 9]: in data set [1], the “efficacité (comparison in words)” value is “beaucoup plus efficaces”, the Dose optimale came out at 35 mg/kg, the T/C max result was “∞” and the M.E.D.I. lay within 15 to 50 mg/kg. The “I = DL50 / D.Opt.” value in data set [1] is recorded as 1,80. Also, the LD50 in data set [2] was found to be 64 mg/kg.

For `O=NN(CCCl)C(=O)NCCCC(=O)NCCCl` [compound 7], in data set [1], the Dose optimale is 35 mg/kg, the T/C max entry is reported as “∞”, the M.E.D.I. lay in the range of 20 to 50 mg/kg and the “I = DL50 / D.Opt.” value is 3,57. The DL50 in data set [2] was 125 mg/kg.

As for `O=NN(CCCl)C(=O)NCCCC[C@H](NC(=O)N(CCCl)N=O)C(=O)NCCCl` [compound 12], in data set [1], the Dose optimale was found to be 30 mg/kg, the T/C max result is “∞”, the M.E.D.I. lay in the range of 20 to 40 mg/kg and the “I = DL50 / D.Opt.” value was 4,50. The compound further had a 50% lethal dose (LD50) in data set [2] of 135 mg/kg.

As for `CSCC[C@H](NC(=O)N(CCCl)N=O)C(=O)NCCCl` [compound 13], in data set [1], the “efficacité (comparison in words)” value is on record as “beaucoup plus efficaces”, the Dose optimale is recorded as 20 mg/kg, the T/C max result is “∞” and the M.E.D.I. was in the range of 10 to 30 mg/kg. In addition, the “I = DL50 / D.Opt.” value in data set [1] is given as 1,60. In data set [2], the LD50 was determined as 32 mg/kg.

Take `O=NN(CCCl)C(=O)N[C@@H](CC(=O)NCCCl)C(=O)NCCCl` [compound 3]: in data set [1], the Dose optimale worked out at 37 mg/kg, the T/C max entry is “∞”, the M.E.D.I. was in the range of 25 to 50 mg/kg and the “I = DL50 / D.Opt.” value is given as 3,50. In data set [2], this compound had an LD50 of 130 mg/kg.

Turning to `C[C@H](NC(=O)N(CCCl)N=O)C(=O)NCCCl` [compound 1], in data set [1], the Dose optimale was 20 mg/kg, the T/C max result is reported as “∞”, the M.E.D.I. lay within 10 to 30 mg/kg and the “I = DL50 / D.Opt.” value is reported as 1,75. The same compound registered an LD50 in data set [2] of 35 mg/kg.
